From the METLIN SMRT retention time set (Domingo-Almenara et al. 2019)

Assay: gradient 5% acetonitrile 3 min, to 50% in 2 min, to 85% in 15 min, held 3 min, 100 µL/min
Conditions: column: Zorbax Extend-C18 2.1 x 50 mm; eluents: water / acetonitrile, 0.1% formic acid
Procedure, shortened: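 The mobile phases were water and acetonitrile, each with 0.1% formic acid, pumped at 100 μL/min through a Zorbax Extend-C18 column (2.1 × 50 mm, 1.8 μm). Pure standards were injected as mixtures of ~100 molecules and detected by a quadrupole time-of-flight mass spectrometer in positive and negative ionization mode. Retention time came from computationally picked adduct peaks, each inspected by hand.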

Row | RP-LC retention time [s] | SMILES
1 | 621 | CC(C)NC(=O)C(=O)NCc1n[nH]c(=O)c2ccccc12
2 | 923 | COc1ccc(N2CCN(C(=O)c3cc(S(=O)(=O)N4CCC(C)CC4)cn3C)CC2)cc1
3 | 644 | CCOC(=O)CNC(=O)N1CCN(Cc2nc3cc(Cl)ccc3o2)CC1
4 | 866 | O=C(CN1C(=O)CSc2cccn2-c2ccccc21)NCc1ccc(F)cc1
5 | 889 | CN(CCc1noc(COc2ccccc2F)n1)C(=O)c1ccccc1F
6 | 675 | Cc1noc(C)c1CNC(=O)c1ccc(C#N)cc1
7 | 798 | Cc1onc(-c2cccnc2)c1C(=O)Nc1ccc(Br)cc1F
8 | 781 | CCc1cc(=O)n(CC(=O)N2CCCc3ccccc32)c(N2CCOCC2)n1
9 | 623 | O=C(Cn1cnc2cc3c(cc21)OCCO3)Nc1ccc2c(c1)OCCO2
10 | 1210 | COC(=O)c1ccc2c(=O)n(-c3cccc(F)c3)c(N3CCCCCC3)nc2c1
11 | 1070 | CCc1nc(-c2csc(S(=O)(=O)N3CCC(C(=O)NC4CCCCCCC4)CC3)c2)no1
12 | 858 | COc1cc(OC)c(NC(=O)NC2(c3nc(C)no3)CCCCC2)cc1Cl
13 | 852 | O=C(NCc1ccco1)c1ccc2c(c1)CCCN2C(=O)c1ccc(Cl)cc1
14 | 667 | CCCC(NC(=O)c1ccsc1)C(=O)Nc1nc2ccccc2[nH]1 (stereo not drawn)
15 | 710 | O=C(Nc1nc2ccccc2[nH]1)c1ccc(Br)cc1
16 | 1050 | COc1ccc(-c2nc(-c3cn(-c4ccc(C)cc4)nn3)no2)c(OC)c1
17 | 680 | O=C(NCc1ccc(F)cc1F)c1ccc2ncnc(N3CCCCC3)c2c1
18 | 1090 | COC(=O)c1cn(C(=O)c2ccccc2)c2ccccc12
19 | 913 | COc1ccc(C2=Nc3ccccc3N(CC(=O)Nc3ccc4c(c3)OCCO4)C(=O)C2)cc1
20 | 623 | CNC(=O)CCc1cc2cc(C)ccc2[nH]c1=O

Row | RP-LC retention time [s] | SMILES
21 | 621 | CCCNC(=O)C1CC(=O)N(c2ccc3c(c2)CCN3C(C)=O)C1 (stereo not drawn)
22 | 780 | O=C(Cn1c(=O)cc(C(=O)N2CCCC2)c2ccccc21)Nc1cccc(Br)c1
23 | 810 | CCOC(=O)CC1(NC(=O)N2CCc3c(c(C(=O)N4CCCCC4)nn3C)C2)CCCCC1
24 | 592 | COC(=O)c1c(C)[nH]c(C(=O)N2CCCC(C(=O)NCCCN3CCCCCC3)C2)c1C (stereo not drawn)
25 | 871 | CCC(C)NC(=O)c1cc(COc2ccc(NC(=O)CC(C)C)cc2)on1 (stereo not drawn)
26 | 678 | Cc1ccc2nc(-c3ccc(O)cc3)c(Nc3ccccc3C)n2c1
27 | 1200 | Cc1ccc(-c2nc(C3CC(=O)N(c4ccc(Cl)cc4)C3)no2)cc1C (stereo not drawn)
28 | 581 | Cc1ccccc1Cn1cc(-c2ccncc2)cc1C(=O)NCc1cccnc1
29 | 799 | Cc1cc(C(=O)NC2CCCCCC2)nn1C
30 | 751 | CCOc1ccc(CNC(=O)C2CCCN(C(=O)c3[nH]c(C)c(C(=O)OC)c3C)C2)cc1 (stereo not drawn)
31 | 555 | Cc1ccc2c(Nc3ccccc3F)c(C(=O)N3CCCC3)cnc2n1
32 | 1050 | Fc1cc(F)cc(-c2nnc(Cc3nc(-c4ccccc4Cl)no3)o2)c1
33 | 600 | O=C(NCc1ccco1)c1coc(NC(=O)C2CC2)n1
34 | 799 | CCCn1cc(CCNC(=O)Cc2cccc(Cl)c2)c2cccnc21
35 | 621 | O=C(NC1CCN(Cc2ccccc2)CC1)c1cn2nc(Cl)ccc2n1
36 | 618 | COc1cn(CC(=O)Nc2ccc(OC(F)(F)F)cc2)c(CO)cc1=O
37 | 654 | c1cc2c(cc1-c1noc(C3CCC3)n1)nnn2CCN1CCCCC1
38 | 1110 | COc1ccc(-n2nc(C)c3sc(N4CCCC(C(=O)NC5CCCCC5)C4)nc32)cc1 (stereo not drawn)
39 | 1040 | Cc1ccc(S(=O)(=O)Cc2nc(-c3cccc(Br)c3)no2)cc1
40 | 840 | O=C(c1cc(-c2ccccc2)n[nH]1)N1CCN(S(=O)(=O)c2ccc(F)cc2)CC1

Continued, compound first:

Row | SMILES | RP-LC retention time [s]
41 | O=C(NCc1ccc2c(c1)OCO2)C1COC2(CCCCC2)N1C(=O)c1cccc(F)c1 (stereo not drawn) | 845
42 | COc1cccc(S(=O)(=O)N2CCN(c3cc(C)nc(NC4CCCCC4)n3)CC2)c1 | 795
43 | Cc1nn(-c2nc(-c3ccc(F)cc3)cs2)c(C)c1CC(=O)Nc1ccccc1Cl | 1230
44 | O=C(CSc1ncnc2c1nnn2-c1cccc(Cl)c1)NCC1CCCO1 (stereo not drawn) | 820
45 | CC(C)(C)c1cc(C(=O)Nc2ccc(C#N)cc2)nc2ccnn12 | 1200
46 | O=C(NCc1cccs1)C1CCN(C(=O)C2Sc3ccccc3NC2=O)CC1 (stereo not drawn) | 714
47 | Cc1oc(-c2ccc(C(=O)NCCCN3CCCC3=O)cc2)nc1CN1CCc2ccccc21 | 853
48 | CCC(=O)Nc1nnc(SCc2nnc(-c3ccccc3)o2)s1 | 739
49 | CN1CCCn2nc(C3CCN(C(=O)Nc4ccc(F)cc4)CC3)cc2C1=O | 669
50 | CCOC(=O)c1ccc(NC(=O)Cn2c(C)cc(=O)c3cc(Br)ccc32)cc1 | 623
51 | CCCN(CCC)S(=O)(=O)c1ccc(Cl)c(OC)c1 | 1030
52 | Cc1ccc(CNS(=O)(=O)c2cc3n(c2)CCCNC3=O)o1 | 615
53 | CCn1c(N2CCCC(C(=O)NCC3CCN(Cc4ccccc4C)CC3)C2)cc(=O)n(C)c1=O (stereo not drawn) | 643
54 | COCCn1cc(C(=O)Nc2ccccc2F)c2nn(-c3ccccc3)c(=O)c-2c1 | 880
55 | Cc1ccccc1-c1cc(N2CCN(C(=O)NCC3CCCO3)CC2)ncn1 (stereo not drawn) | 600
56 | Cn1c(N2CCCC(C(=O)Nc3ccc4c(c3)OCCO4)C2)cc(=O)n(C)c1=O (stereo not drawn) | 663
57 | Cc1c(C(=O)N2CCCCC2)cnn1-c1ccc(-c2nc(C3CC3)no2)cn1 | 1010
58 | COC(=O)c1c(NCC2CC2)c2cccc(Cl)c2[nH]c1=O | 757
59 | COc1ccccc1N1C(=O)C2ON(c3ccccc3)C(c3cccc([N+](=O)[O-])c3)C2C1=O (stereo not drawn) | 615
60 | CC(=O)N1CCc2cc(S(=O)(=O)Nc3ccc4c(c3)-c3nc(C)sc3CC4)ccc21 | 784
61 | CCOC(=O)c1c(C)[nH]c(C(=O)N2CCC(C(C)C(=O)NCc3ccc(F)cc3)CC2)c1C (stereo not drawn) | 805
62 | Cc1cc(C)n2nc(SCC(=O)N(c3ccccc3)c3ccccc3)nc2n1 | 824
63 | CCOc1cccc(-c2noc(Cn3ncn4nc(-c5ccc(Br)cc5)cc4c3=O)n2)c1 | 1310
64 | COc1ccc(NC(=O)c2sc(-c3cn(C(C)C)c4ncccc34)nc2C)cc1OC | 944

Row | SMILES | RP-LC retention time [s]
65 | COC(=O)C(N)Cc1ccc(Cl)cc1 (stereo not drawn) | 653
66 | COc1cccc(CNC(=O)[C@@H]2[C@H](c3cc(OC)c(OC)c(OC)c3)c3cc4c(cc3[C@H](O)[C@H]2CO)OCO4)c1OC | 702
67 | CC1Oc2ccc(S(=O)(=O)N3CCC(C(=O)NCc4ccc(Cl)cc4)CC3)cc2NC1=O (stereo not drawn) | 846
68 | CCOc1ccc(-c2noc(Cc3nnc(-c4cccc(Cl)c4)o3)n2)cc1 | 1140
69 | Cc1cc(C)nc(N2CCN(C)CC2)n1 | 556
70 | CCOc1ccc(-c2noc(CN3N=NC4C(=O)N(c5ccc(C(C)C)cc5)C(=O)C43)n2)cc1OC (stereo not drawn) | 1060
71 | O=C(Nc1ccccc1)N1CCN(Cc2nc(-c3ccccc3)cs2)CC1 | 612
72 | O=c1c2sccc2n(Cc2nc(-c3ccccc3)no2)c(=O)n1Cc1ccc(F)cc1 | 1040
73 | COc1cccc(OCC2c3ccsc3CCN2C(=O)CN(C(C)=O)C(C)C)c1 (stereo not drawn) | 808
74 | Cc1nc(-c2csc(S(=O)(=O)N3CCC(C(=O)NCCC4=CCCCC4)CC3)c2)no1 | 971
75 | CCC(C)NC(=O)c1ccc2c(c1)N(C)C(=O)CS2 (stereo not drawn) | 734
76 | O=c1n(Cc2cccc(F)c2)nc2c(S(=O)(=O)N3CCOCC3)cccn12 | 741
77 | Cc1cc(C)n(Cc2ccc(C(=O)N3CCCN(c4cc(=O)n(C(C)C)c(=O)n4C(C)C)CC3)o2)n1 | 768
78 | CC(=O)c1ccc(Nc2ncnc3c2cnn3-c2ccccc2Cl)cc1 | 804
79 | Cc1nnc(-c2ccc3ccn(CC(=O)N4CCN(c5cccc(C)c5C)CC4)c3c2)o1 | 997
80 | O=C(Cn1c2ccccc2c2ncn(Cc3nc(C4CC4)no3)c(=O)c21)NCCC1=CCCCC1 | 940
81 | CCOc1ccc(-c2csc(Cc3nc(-c4ccccc4)no3)n2)cc1 | 1230
82 | COC(=O)c1ccc(NC(=O)N2[C@H]3CC[C@@H]2c2cnc(-c4ccc(F)cc4)nc2C3)cc1 | 993
83 | O=C(NCc1ccc(Br)cc1)C1CCCN(c2ncc(-c3ccc(F)cc3)cn2)C1 (stereo not drawn) | 1120
84 | O=C(Cn1cccc1-c1nnc(-c2ccccc2)o1)N1CCN(c2ccc(F)cc2)CC1 | 996
85 | Cc1ccc(-c2csc(-n3nc(C)c(CC(=O)Nc4ccc(C)c(C)c4)c3C)n2)cc1 | 1310
86 | CC(C)c1ccc(S(=O)(=O)N2CCCC2c2nc(-c3cccc(F)c3)no2)cc1 (stereo not drawn) | 1270
87 | Cc1ccc(NC(=O)N2CCCC(Cn3cnc4cccnc43)C2)cc1Cl (stereo not drawn) | 747
88 | CCCN(CC1CCOC1)C(=O)Nc1cccc(C)c1C (stereo not drawn) | 818
